Measured values: patent publication US20080171070A1, “Polyelectrolyte Multilayer Film, Preparation And Uses Thereof” (priority 2005, published 2008)

How the values were obtained:
[1] = tested on: macrophages; experiment: Confocal laser scanning microscopy of films in contact with cells (film degradation, contact with embedded protein A); format: cell-based, human; conditions: protein A embedded under 20 pairs of (PlGA/PlL) layers
Experimental: Confocal laser scanning microscopy. For the confocal laser scanning microscopy (CLSM) based investigations, the films were imaged in liquid conditions. CLSM observations were carried out with a Zeiss LSM 510 microscope using a ×40/1.4 oil immersion objective and with 0.4 μm z-section intervals. FITC fluorescence was detected after excitation at 488 nm, cutoff dichroic mirror 488 nm, and emission band pass filter 505-530 nm (green). Virtual vertical sections can be visualized, allowing the thickness of the film to be determined.
In previous experiments, the inventors could visualize the pseudopods developing through the multilayer down to the protein A layer.^[19] […] The progressive degradation of the (PlGA/PlL)n film as a function of contact time with the cells is visualized in FIGS. 2a-2c.
The inventors have seen that the film thickness depends upon the d/l ratio of the build-up polyelectrolyte solutions and in particular that it decreases when x increases from 0 up to 50%. On the other hand, for a given number of deposited pairs of layers, the biological activity decreases when x increases. The variations of the biological effects can thus not be attributed to changes of the film thickness with x. The biological effects can rather be explained by a continuous degradation and pseudopod development through the multilayered films^[19] as already found on (PlL/PlGA)n films. […]

[2] = tested on: human macrophages; experiment: Stimulation assay: TNF-α production (ELISA) by macrophages seeded on PA-containing polyelectrolyte multilayers; format: cell-based
Source text: Cell Culture. Whole blood samples were purchased at the “Etablissement Français du Sang” (EFS, Strasbourg, France). Peripheral mononuclear blood cells (PBMC) from healthy individuals, seronegative for […] and hepatitis B and C were isolated from buffy coat by Ficoll/Hypaque centrifugation and were washed twice in phosphate-buffered saline without Ca^2+/Mg^2+. Monocytes were isolated from whole-blood and separated by counter-current centrifugal elutriation of the peripheral mononuclear cells.^[40] Purity was measured by flow cytometry staining with fluorochrome antibodies (Becton Dickinson, PharMingen, San Diego, Calif.) to CD3 (T cells), CD19 (B cells), CD14 (monocytes) and CD45 (leukocytes). Monocytes were diluted at 1.5×10^6 cells mL^−1 in AIM lymphocytes SVF free medium with Glutamax, 100 U mL^−1 GM-CSF (PeproTech, Rocky Hill, USA). Culture medium was changed after 3 days of culture, and at day 5 macrophages were washed twice with RPMI at 37° C.
Polyelectrolyte multilayered film preparation. Polyelectrolyte multilayers were always prepared on glass coverslips (CML, France) pretreated for 15 min at 100° C. with 10^−2 M SDS and 0.12 N HCl, and then extensively rinsed with deionised water. Glass coverslips were deposited in 24-well plates (Nunc, Denmark). All the solutions (polyelectrolyte, PA and rinsing) used for the film constructions contained 0.15 M NaCl with a pH adjusted to 7.4. At this pH both polylysine and polyglutamic acid are almost fully charged, be they l or d enantiomers so that they should not form stereocomplexes in solution. The films were constructed with polyelectrolyte (resp. PA) solutions at 1 mg·mL^−1 (resp. 200 μg·mL^−1) of polyelectrolytes (resp. PA). The film construction was performed as follows: First a precursor film constituted by (PlL/PlGA)5-PlL was built. In each deposition step, the surface is brought in contact with the polyelectrolyte solution for 20 mins followed by another contact with the rinsing solution for 5 mins. This rinsing step is repeated 3 times before adsorption of the polyelectrolyte of opposite charge. After the buildup of the precursor film, PA was adsorbed on the positively charged PlL terminating the precursor film during an overnight contact with PA solution. This film was then rinsed and the additional (PL/PGA)n-PL film was built by using PL and PGA solutions containing (x/100) mg·mL^−1 of PdL (resp. PdGA) and (1-x/100) mg·mL^−1 of PlL (resp. PlGA). All the films were then sterilized for 10 mins by ultraviolet light (254 nm). Before use, the architectures were put in contact with 1 mL of RPMI without serum during 24 h. It is possible that when the films are brought in contact with the culture medium, their structure and thickness change, the structure of the multilayers being dependent on many different physico-chemical parameters.^[41-43] However, such changes cannot explain the different biological effects that are observed in this study. […] One can also notice that the films were built at room temperature whereas the experiments with cells were realized at 37° C.
Stimulation assays. Stimulation assays involving polyelectrolyte films were conducted by seeding 5×10^5 cells (macrophages) onto the PA-containing polyelectrolyte multilayers prepared on glass coverslips and placed into the wells of 24-well plates. TNF-α production by cells was measured by ELISA. TNF-α levels were detected by an enzyme immunoassay (Endogen Products, Woburn, Mass.). All experiments were repeated twice and were performed at 37° C.
For multilayer films containing embedded PA, the proteins were always adsorbed on a (PlL/PlGA)5-PlL precursor film in order to keep the adsorption process (in particular the amount of adsorbed proteins) unaffected by the d/l composition of the film. The multilayer with a given d/l composition was then further deposited on top of the (PlL/PlGA)5-PlL-PA architecture and is constituted by n additional pairs of layers. […]

[3] = tested on: cells; conditions: replacement of PlL by PdL in the film; cited from earlier work
[4] = tested on: human macrophages; conditions: cited from earlier work
[5] = FTIR spectroscopy in transmission mode, amide-I spectra of protein A with polypeptides; format: physicochemical; conditions: protein A with PlL and/or PdL, 1 mg mL^−1 each, D2O, 0.15M NaCl
Experimental: FTIR Spectroscopy in transmission mode. Transmission spectra were measured on an EQUINOX 55 spectrophotometer (Bruker, Wissembourg, France) using a DTGS detector. Solutions were flown into a sample cell holder (SPECAC P/N 20510). Transmission spectra were measured by using CaF2 windows. Single channel spectra from 128 interferograms were calculated between 4000 and 400 cm^−1 with 2 cm^−1 resolution, using Blackman-Harris three-term apodization and Mertz phase correction with the standard Bruker OPUS/IR software (Version 3.0.4). Each sample (aqueous solution of polypeptide or protein A or both) was prepared at a concentration of 1 mg mL^−1 of each component, in a D2O, 0.15M NaCl (purchased from Prolabo) solution.

PA: Staphylococcus aureus protein A, MW=42,000 Da, from Sigma; embedded in the multilayer films as model active ingredient
Contact of macrophages with embedded protein A (CLSM) [1]: come into contact with protein A | TNF-α production (biological activity) ([2]; d content between 10 and 20%, all embedding depths up to n=20, after 4 hours of contact): full activity | TNF-α production (biological activity) ([2]; d content between 10 and 20%, embedding depth exceeds 15 pairs of layers, after 4 hours of contact): reaches its full activity | TNF-α production (biological response) ([2]; d content between 10 and 20%, embedding depth exceeds 15 pairs of layers, initial 3 hours of contact): no biological response | TNF-α production (biological activity), time course ([2]; d content between 10 and 20%, embedding depths up to 5 pairs of layers): increases continuously in time, the plateau value being reached after 4 hours of contact | TNF-α production (cellular response) ([2]; n=0: PA adsorbed on top of the film, direct contact with cells, lasts at least up to 6 hours): rapid cellular response is observed already after one hour of contact | TNF-α production (biological activity) ([2]; x between 30 and 40%, PA embedded under 1 layer pair): gradually increases after 2 hours of contact | TNF-α production (biological activity) ([2]; x between 30 and 40%, embedded under 5 pairs of layers, after 6 hours of contact): fully active | TNF-α production (biological activity) ([2]; x between 30 and 40%, embedded under 5 pairs of layers, first 4 hours): totally suppressed | TNF-α production (biological activity) ([2]; x between 30 and 40%, embedded under 15 pairs of layers or more, first 6 hours of contact): no longer acts on cells | TNF-α production (biological activity) ([2]; x equals 50% or more of d enantiomer, PA embedded under a (PL/PGA/PL) trilayer): totally suppressed | Cellular communication with embedded PA [3]: prevents cellular communication with embedded PA | Cytokine expression on PA stimulation [4]: rapid expression of both the pro-inflammatory cytokine TNF-α and the anti-inflammatory cytokine IL-10 | Effect of polypeptide interaction on secondary structure of protein A (amide-I spectra) [5]: do not affect the secondary structure of protein A
